Twelve molecules from patent US12559504B2, “Benzotriazole derivative” (UBE CORPORATION, priority 2019, dated 2026) can be followed below.

In series [1] the target is T1, GST fusion human Keap1 (amino acid residue: 325-624) protein (Homo sapiens, UniProt Q14145).
T1 construct: GST fusion human Keap1 (amino acid residue: 325-624) protein; purchased Protein tech Ag0779
Description: Keap1-Nrf2 binding inhibition test (fluorescence polarization). To be noted: compound concentration of 100 nM; read-out: inhibition rate. The gist of the method:
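Fluorescence polarization with FITC-labelled Nrf2 peptide (FITC-Ahx-LDEETGEFL-NH2) and GST-human Keap1 (325-624) in 20 mM Tris pH 7.5, 150 mM NaCl, 0.05% Tween 20, 5 mM DTT, BSA; 30 min at room temperature, ex 482/em 530 nm. Percent inhibition at 100 nM compound, Keap1-free wells = 100%.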

For series [2], the system named is NQO1. The series is described as follows: NQO1 enzyme induction test (in vitro) in Hepa1c1c7 cells. Format: cell-based. The settings on record: Mus musculus, Hepa-1c1c7, 48 h, concentration to elevate the NQO1 activity by 1.5 times, about 48 hours, read-out: EC150. Here is the method:
Each NQO1 assay was carried out by modifying a known method (Anal Biochem 1998; 169: 328-, Methods Enzymol 2004; 382: 243-). Hepa1c1c7 cells (mouse hepatocyte line manufacture by DS Pharma Biomedical Co., Ltd., REF. No. 95090613) were cultured (5% CO2, 37° C.). The cells were cultured in MEMα (manufactured by FUJIFILM Wako Pure Chemical Corporation, REF. 135-15175) medium comprising 10% FBS (manufactured by GIBCO, REF. 10082) and […]/streptomycin/amphotericin B (manufactured by GIBCO, REF. 15240), and dispensed into a 96 well plate (manufactured by Costar, REF. 3610) at 2.0×10^3 cells/well. On the next day, test compound (final concentration of […]: 0.1%) dissolved into DMSO (manufactured by FUJIFILM Wako Pure Chemical Corporation, REF. 043-07216) was added to each well, and the plate was further cultured for about 48 hours.
A cell lysate manufactured by Cell signaling Technology, Inc. (REF. 9803) with the addition of a Protease Inhibitor manufactured by Roche Diagnostics K.K. (REF. 11-873580001) was used. A reaction solution (which is a solution comprising trishydrochloric acid (25 mM), albumin […], Tween-20 (0.01%), glucose-6-phosphate dehydrogenase (2 U/mL), flavin-adenine dinucleotide (5 μM), glucose-6-phosphate (1 μM), nicotinamide adenine dinucleotide phosphate (30 μM), 3-(4,5-dimethyl-2-thiazolyl)-2,5-diphenyltetrazolium bromide (MTT) (0.03%), and menadione (50 μM)), and a stop solution (which is a solution comprising dicumarol (0.3 mM) and potassium dihydrogen phosphate (5 mM), pH 7.4) were prepared. After the medium was removed, cell lysate (50 μL) was added thereto, and the resulting mixture was shaken at room temperature for 20 minutes. The reaction solution (200 μL) was added thereto, and the resulting mixture was left to stand at room temperature for 5 minutes. The stop solution (50 μL) was added thereto, and absorbance at 540 nm (reference 750 nm) was measured.
Cell number was measured by Cell Titer Glo assay (manufactured by Promega Corporation, REF. G9242) by using another plate prepared according to the same conditions as those described above, and correction of absorbance was carried out. The test result was analyzed by Excel, and the EC150 value which is the concentration to elevate the NQO1 activity by 1.5 times was calculated.

Series [3] deals with NQO1. Description: NQO1 expression induction test in mouse kidney (single administration). The settings on record: Mus musculus, po, 6 h, BALB/c mouse kidney, 6 hours after administration, ratio to control group. Format: in vivo. The gist of the method:
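Female BALB/c mice received a single oral dose of compound in 0.5% methylcellulose, with untreated mice as controls. Six hours later, left-kidney NQO1 mRNA was measured by SYBR real-time RT-PCR normalised to GAPDH. Induction was expressed as the ratio of mean treated to mean control expression.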

Series [4] in a line: Metabolism test using human liver microsome fractions. It counts as in vitro ADME. To be noted: human liver microsomes, test compound 10 μmol/L, NADPH and UDP-glucuronic acid, 37° C. The gist of the method:
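Human or monkey liver microsomes (1 mg protein) with NADPH-regenerating system plus UDP-glucuronic acid/UGT mix, 37 °C; compound at 10 μmol/L final. Samples at 0–30 min quenched in acetonitrile, UV-HPLC; elimination rate (pmol/min/mg-P) from linear slope of residual amount over time.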
On the technique in general: Liver microsomes are a subcellular fraction often used to study metabolism.

T1 sequence (Q14145 325-624): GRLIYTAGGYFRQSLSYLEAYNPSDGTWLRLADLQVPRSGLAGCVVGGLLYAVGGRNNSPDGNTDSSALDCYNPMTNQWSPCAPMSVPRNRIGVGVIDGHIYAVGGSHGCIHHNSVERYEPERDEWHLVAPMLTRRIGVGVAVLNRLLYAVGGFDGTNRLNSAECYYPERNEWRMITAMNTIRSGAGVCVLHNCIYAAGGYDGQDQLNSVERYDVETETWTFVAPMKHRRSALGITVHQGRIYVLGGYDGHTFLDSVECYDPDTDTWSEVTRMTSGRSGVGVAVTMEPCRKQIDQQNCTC

On to `CC[C@@H]1CN(Cc2cc(C(c3ccc4c(nnn4C)c3C)C(C)(C)C(=O)O)ccc2C)Cc2ccccc2O1` (single isomer, unassigned) [Example C1, reference compound], for which, in series [1], the inhibition (in general, the change of the read-out against control, counted positive when it falls) at 0.1 µM was not below 50%. Besides, in the series on NQO1 [2], the EC (1.5-fold NQO1 activity) is 0.005 to 0.05 µM. Further, the fold induction (commonly the ratio of treated to control signal) at 10 mg/kg in the series on NQO1 [3] (Dose 10 mg/kg) was not above 3. Also, the Human metabolic rate result in series [4] is recorded as “C (150≤metabolic rate<200 pmol/min/mg protein)”.
Turning to `CC[C@@H]1CN(Cc2cc(C(c3ccc4c(nnn4C)c3C)C(C)(C)C(=O)O)ccc2C)Cc2cc3c(cc2O1)OC(F)(F)O3` (stereo partly drawn) [Example 1-(b), 3-(1,4-dimethyl-1H-benzo[d][1,2,3]triazol-5-yl)-3-(3-(((R)-6-ethyl-2,2-difluoro-6,7-dihydro-[1,3]dioxolo[4′,5′:4,5]benzo[1,2-f][1,4]oxazepin-8(9H)-yl)methyl)-4-methylphenyl)-2,2-dimethylpropanoic Acid], in series [1], the inhibition at 0.1 µM was not below 50%. The EC (1.5-fold NQO1 activity) with NQO1 [2] is 0.0005 to 0.005 µM. The fold induction at 30 mg/kg in the series with NQO1 [3] was in the range of 3 to 6. Moreover, the Human metabolic rate result in series [4] was “C (150≤metabolic rate<200 pmol/min/mg protein)”.
In the same order, the values of `CC[C@@H]1CN(Cc2cc(C(c3ccc4c(nnn4C)c3C)C(C)(C)C(=O)O)ccc2C)Cc2ccc3c(c2O1)OC(F)(F)O3` (stereo partly drawn) [Example 2-(b), 3-(1,4-dimethyl-1H-benzo[d][1,2,3]triazol-5-yl)-3-(3-(((R)-9-ethyl-2,2-difluoro-8,9-dihydro-[1,3]dioxolo[4′,5′:3,4]benzo[1,2-f][1,4]oxazepin-7(6H)-yl)methyl)-4-methylphenyl)-2,2-dimethylpropanoic Acid] are not below 50%, 0.0005 to 0.005 µM, 3 to 6 and “A (metabolic rate<100 pmol/min/mg protein)”.
In the same order, the values of `CC[C@@H]1CN(Cc2cc(C(c3ccc4c(nnn4C)c3C)C(C)(C)C(=O)O)ccc2C)Cc2cc3c(cc2O1)CCC3` (stereo partly drawn) [Example 3-(b), 3-(1,4-dimethyl-1H-benzo[d][1,2,3]triazol-5-yl)-3-(3-(((R)-2-ethyl-2,3,5,7,8,9-hexahydro-4H-indeno[5,6-f][1,4]oxazepin-4-yl)methyl)-4-methylphenyl)-2,2-dimethylpropanoic Acid] are not below 50%, 0.005 to 0.05 µM, more than 6 and “C (150≤metabolic rate<200 pmol/min/mg protein)”.
In the same order, the values of `CC[C@@H]1CN(Cc2cc(C(c3ccc4c(nnn4C)c3C)C(C)(C)C(=O)O)ccc2C)Cc2cc3c(cc2O1)CCCC3` (stereo partly drawn) [Example 4-(b), 3-(1,4-dimethyl-1H-benzo[d][1,2,3]triazol-5-yl)-3-(3-(((R)-2-ethyl-2,3,7,8,9,10-hexahydronaphtho[2,3-f][1,4]oxazepin-4(5H)-yl)methyl)-4-methylphenyl)-2,2-dimethylpropanoic Acid] are not below 50%, 0.005 to 0.05 µM, more than 6 and “B (100≤metabolic rate<150 pmol/min/mg protein)”.
As for `CC[C@@H]1CN(Cc2cc(C(c3ccc4c(nnn4C)c3C)C(C)(C)C(=O)O)ccc2C)Cc2ccc3c(c2O1)CCC3` (stereo partly drawn) [Example 6-(b), 3-(1,4-dimethyl-1H-benzo[d][1,2,3]triazol-5-yl)-3-(3-(((R)-2-ethyl-2,3,5,8,9,10-hexahydro-4H-indeno[5,4-f][1,4]oxazepin-4-yl)methyl)-4-methylphenyl)-2,2-dimethylpropanoic Acid], the inhibition at 0.1 µM in series [1] was not below 50%. For the same molecule, the EC (1.5-fold NQO1 activity) in the series on NQO1 [2] was 0.005 to 0.05 µM. Besides, the fold induction at 30 mg/kg in the series on NQO1 [3] lay in the range of 3 to 6. Also, in series [4], the Human metabolic rate entry was “B (100≤metabolic rate<150 pmol/min/mg protein)”.
For `CC[C@@H]1CN(Cc2cc(C(c3ccc4c(nnn4C)c3C)C(C)(C)C(=O)O)ccc2C)Cc2ccc3c(c2O1)CCCC3` (stereo partly drawn) [Example 7-(b), 3-(1,4-dimethyl-1H-benzo[d][1,2,3]triazol-5-yl)-3-(3-(((R)-2-ethyl-2,3,8,9,10,11-hexahydronaphtho[2,1-f][1,4]oxazepin-4(5H)-yl)methyl)-4-methylphenyl)-2,2-dimethylpropanoic Acid] the same measures were not below 50%, 0.005 to 0.05 µM, 3 to 6 and “B (100≤metabolic rate<150 pmol/min/mg protein)”.
In the same order, the values of `CC[C@@H]1CN(Cc2cc(C(c3ccc4c(nnn4C)c3C)C(C)(C)C(=O)O)ccc2C)Cc2cc3ccccc3cc2O1` (stereo partly drawn) [Example 8-(b), 3-(1,4-dimethyl-1H-benzo[d][1,2,3]triazol-5-yl)-3-(3-(((R)-2-ethyl-2,3-dihydronaphtho[2,3-f][1,4]oxazepin-4(5H)-yl)methyl)-4-methylphenyl)-2,2-dimethylpropanoic Acid] are not below 50%, 0.0005 to 0.005 µM, 3 to 6 and “A (metabolic rate<100 pmol/min/mg protein)”.
On to `CC[C@@H]1CN(Cc2cc(C(c3ccc4c(nnn4C)c3C)C(C)(C)C(=O)O)ccc2C)Cc2ccc3cccnc3c2O1` (stereo partly drawn) [Example 27-(b), 3-(1,4-dimethyl-1H-benzo[d][1,2,3]triazol-5-yl)-3-(3-(((R)-2-ethyl-2,3-dihydro-[1,4]oxazepino[6,7-h]quinolin-4 (5H)-yl)methyl)-4-methylphenyl)-2,2-dimethylpropanoic Acid], for which the inhibition at 0.1 µM in series [1] is not below 50%. In the series on NQO1 [2], the EC (1.5-fold NQO1 activity) was in the range of 0.005 to 0.05 µM. Moreover, the fold induction at 30 mg/kg with NQO1 [3] was not above 3.
In the same order, the values of `CC[C@@H]1CN(Cc2cc(C(c3ccc4c(nnn4C)c3C)C(C)(C)C(=O)O)ccc2C)Cc2ccc3ncccc3c2O1` (stereo partly drawn) [Example 28-(b), 3-(1,4-dimethyl-1H-benzo[d][1,2,3]triazol-5-yl)-3-(3-(((R)-2-ethyl-2,3-dihydro-[1,4]oxazepino[7,6-f]quinolin-4(5H)-yl)methyl)-4-methylphenyl)-2,2-dimethylpropanoic Acid] are not below 50%, 0.0005 to 0.005 µM and 3 to 6.
In the same order, the values of `CC[C@@H]1CN(Cc2cc(C(c3ccc4c(nnn4C)c3C)C(C)(C)C(=O)O)ccc2C)Cc2ccc3ccncc3c2O1` (stereo partly drawn) [Example 62, 3-(1,4-dimethyl-1H-benzo[d][1,2,3]triazol-5-yl)-3-(3-(((R)-2-ethyl-2,3-dihydro-[1,4]oxazepino[6,7-h]isoquinolin-4 (5H)-yl)methyl)-4-methylphenyl)-2,2-dimethylpropanoic Acid] are not below 50%, 0.0005 to 0.005 µM and not above 3.
As to `CC[C@@H]1CN(Cc2cc(C(c3ccc4c(nnn4C)c3C)C(C)(C)C(=O)O)ccc2C)Cc2cc(Cl)c3ccccc3c2O1` (stereo partly drawn) [Example 67-(b), 3-(3-(((R)-7-chloro-2-ethyl-2,3-dihydronaphtho[2,1-f][1,4]oxazepin-4 (5H)-yl)methyl)-4-methylphenyl)-3-(1,4-dimethyl-1H-benzo[d][1,2,3]triazol-5-yl)-2,2-dimethylpropanoic Acid], the inhibition at 0.1 µM in series [1] is not below 50%. Besides, the EC (1.5-fold NQO1 activity) in the series on NQO1 [2] fell in the range of 0.005 to 0.05 µM. Moreover, the fold induction at 20 mg/kg with NQO1 [3] (Dose 20 mg/kg) was not above 3.
